# From patent US20130281409A1, “Myelin Sheath Fatty Acids that Resolve Neuroinflammation” (priority 2012, published 2013)
# Read-outs that look alike come from different tables or passages of the source.
# Key:
# [1] = system: azPC-mediated inhibition of MBP Ac1-11 specific T cell proliferation; test: Phospholipase inhibitor effect on azPC-mediated inhibition of T cell proliferation; assay type: cell-based, mouse; conditions: about 40 min pre-incubation with inhibitor, 2 μg/ml MBPAc1-11, 30 μg/ml azPC, 48 hours
# Experimental: 5×10^6 cells/ml were pre-incubated in complete RPMI media for about 40 min at 37° C. with 5% CO2, in the presence of the corresponding vehicle (DMSO or 100% ethanol) or a phospholipase inhibitor: OBAA (500 nM, Tocris Bioscience), U 73122 (500 nM, Tocris Bioscience), 525143 (5 μM, EMD, Calbiochem), FKGK 11 (50 μM, Caymen Chemical), YM 26734 (250 μM, Tocris Bioscience), LY 311727 (500 μM, Tocris Bioscience), CAY10590 (200 μM, Caymen Chemical), 525145 (5 μM, EMD, Calbiochem). Afterwards, the splenocytes were plated in triplicate and stimulated in vitro with 2 μg/ml of MBPAc1-11 in the presence of 30 μg/ml azPC for 48 hours. Proliferation response is the ratio of the average triplicate wells of MBP+azPC divided by the average triplicate wells of MBP, or MBP divided by MBP.
# [2] = system: MBPAc1-11-TCR transgenic splenocytes; test: MBPAc1-11-specific T-cell proliferation (3H-thymidine incorporation); assay type: cell-based, mouse; conditions: fatty-acid side-chain analogs, various concentrations
# Experimental: (§1) Splenocytes were harvested from mice transgenic for the MBPAc1-11-specific T-cell receptor and stimulated with 2 μg/ml of MBPAc1-11 in the presence of 30 μg/ml of lipid. Lymph nodes and spleens were also harvested from naive C57BL/6 mice, and CD3^+ T-cell enrichment columns (R&D systems) were used to isolate CD3^+ T cells. The purified CD3^+ T cells were stimulated with 5 μg/ml of plate-bound anti-CD3 antibodies and anti-CD28 antibodies in the presence of 30 μg/ml of POPS, PGPC, azPC ester, brain sulfatides, or azPC, 0.25 mM palmitic acid, or 100% ethanol (as the vehicle control). For assessment of proliferation, 1 μCi of ^3H-thymidine was added to each well for the final 18-24 hours of culture, and incorporation of radioactivity was measured by using a Betaplate scintillation counter. Cytokine assays were performed on culture supernatants after 24 (IL-12p40) or 48 hours (IFN-γ, IL-6, and TNF) of culture by using the BD OptEIA™ Mouse ELISA kits (BD Biosciences).
# 5×10^6 cells/ml were stimulated in vitro with 2 μg/ml of MBPAc1-11 in the presence of various concentrations of palmitic acid (Sigma), other lipids, or 100% Ethanol (vehicle alone).
# For assessment of proliferation, 1 μCi of ^3H-thymidine was added to each well for the final 18 hours of culture, and incorporation of radioactivity was quantified using a Betaplate scintillation counter.
# [3] = system: CD3+ T cells (gated on CD4+ T cells); test: T-cell apoptosis, Annexin V and 7AAD staining; assay type: cell-based, mouse; conditions: 0.25 mM palmitic acid, anti-CD3 and anti-CD28, 48 h
# Experimental: FIG. 5. […] (C) TUNEL staining of brain and spinal-cord tissue from mice immunized with PLP139-151 peptide (to induce EAE) and treated for 12 h with azPC, POPS, or vehicle on day 15 after immunization. […] (D) Quantification of TUNEL-positive infiltrating cells in brain and spinal cord shown in panel (C). Cells were stained according to standard protocols, run on a FACScan flow cytometer (BD Biosciences), and analysed with CellQuest software (BD Immunocytometry Systems). The antibody conjugate used was FITC anti-CD4, clone GK1.5 (BD Pharmingen). 7AAD staining was performed by using the Annexin V-PE Apoptosis Detection Kit I (BD Pharmingen). Cells were stained according to standard protocols, run on a FACScan flow cytometer (BD Biosciences), and analysed with CellQuest software (BD Immunocytometry Systems) or with FlowJo software version 6.3.2 (Tree Star, Inc.).
# [4] = system: EAE in PLP139-151-immunized SJL/J mice; test: EAE, lipid or palmitic-acid treatment of established disease; assay type: in vivo, mouse
# Experimental: Animal experiments were approved by, and performed in compliance with, the National Institute of Health guidelines of the Institutional Animal Care and Use Committee at Stanford University. For induction of EAE, 8- to 12-week-old female SJL/J mice (Jackson Laboratory) were immunized subcutaneously with 100 μg of PLP139-151 emulsified in CFA (Difco Laboratories). Lipid and palmitic-acid treatment: Administration of lipid, palmitic acid, or vehicle was initiated once the PLP139-151-immunized mice developed paralysis (representing clinical EAE) and repeated every other day, for a total of ten separate injections. 100 μg of POPS, PGPC, azPC ester, azPC, palmitic acid, or vehicle (0.05% Tween-20 in PBS) was administered in 0.2 ml intravenously in the tail. EAE treatment with lipid: 100 μg of PGPC or sphingomyelin or vehicle ([…] Tween-20 in PBS) was administered in 0.2 ml intravenously in the tail. Treatment with lipid or vehicle was initiated once the PLP139-151-immunized mice developed paralysis (representing clinical EAE) and repeated 3, 6, 12, and 18 days later, for a total of five separate injections.
# CD3+ T cells [5] = test: Proliferation of anti-CD3/anti-CD28-stimulated purified T cells; assay type: cell-based, mouse; conditions: anti-CD3 and anti-CD28, 0.25 mM palmitic acid, 48 h
# Experimental: Splenocytes were harvested from mice transgenic for the MBPAc1-11-specific T-cell receptor and stimulated with 2 μg/ml of MBPAc1-11 in the presence of 30 μg/ml of lipid. Lymph nodes and spleens were also harvested from naive C57BL/6 mice, and CD3^+ T-cell enrichment columns (R&D systems) were used to isolate CD3^+ T cells. […] Cytokine assays were performed on culture supernatants after 24 (IL-12p40) or 48 hours (IFN-γ, IL-6, and TNF) of culture by using the BD OptEIA™ Mouse ELISA kits (BD Biosciences). Cd1d^−/− T cells: We harvested splenocytes from Cd1d^−/− mice and their wild-type littermates and used CD3^+ T-cell enrichment columns (R&D systems) to isolate T cells. […] Anti-CD3/anti-CD28-stimulated purified T cells: We harvested lymph nodes and spleens from naive C57BL/6 mice and used CD3^+ T-cell enrichment columns (R&D systems) to isolate CD3^+ T cells.
# CD3+ T cells [6] = test: Cytokine production of anti-CD3/anti-CD28-stimulated purified T cells; assay type: cell-based, mouse; conditions: anti-CD3 and anti-CD28, 0.25 mM palmitic acid, 48 h
# Experimental: as §1
# Anti-CD3/anti-CD28-stimulated purified T cells: We harvested lymph nodes and spleens from naive C57BL/6 mice and used CD3^+ T-cell enrichment columns (R&D systems) to isolate CD3^+ T cells. We then stimulated 1×10^6 cells/ml of T cells with 5 μg/ml of plate-bound anti-CD3 antibodies plus anti-CD28 antibodies in the presence of 30 μg/ml of POPS, PGPC, azPC ester, brain sulfatides, or azPC, […], or 100% ethanol (as the vehicle control).
# Cytokine production by cells from the lymph nodes and spleens of PGPC co-immunized mice was measured after 66 hours of stimulation by using the BD OptEIA™ Mouse IFN-γ ELISA kit (BD Biosciences). Cytokine assays for the anti-CD3/anti-CD28 antibody-stimulated T cells and PLP139-151-stimulated splenocytes were performed on culture supernatants after 48 hours of stimulation using the BD OptEIA™ Mouse IL-6, IFN-γ, and TNF alpha ELISA kits (BD Biosciences) and the Mouse IL-17 DuoSet ELISA Development kit (R&D Systems).
# [7] = system: EAE in PLP139-151-immunized SJL/J mice; test: EAE, lipid administered prophylactically (co-immunization with PLP139-151); assay type: in vivo, mouse; conditions: 6 μg/injection; s.c. with PLP139-151 on day 0, i.p. on days 4 and 7
# Experimental: Animal experiments were approved by, and performed in compliance with, the National Institute of Health guidelines of the Institutional Animal Care and Use Committee at Stanford University. For induction of EAE, 8- to 12-week-old female SJL/J mice (Jackson Laboratory) were immunized subcutaneously with 100 μg of PLP139-151 emulsified in CFA (Difco Laboratories). Three injections of PGPC (6 μg/mouse/injection) or vehicle (0.05% Tween-20 in PBS) were delivered on days 0, 4, and 7 after immunization with PLP139-151. On day 0, the lipid or vehicle was emulsified together with PLP139-151 in CFA and administered by subcutaneous injection. At subsequent time points, lipid or vehicle was injected intraperitoneally. EAE was assessed as previously described. To induce EAE in SJL/J mice (Jackson Mice), we immunized 8- to 12-week-old female animals subcutaneously with 100 μg of PLP139-151 emulsified in CFA (Difco Laboratories). Prophylactic administration of lipid: Three injections of PGPC or sphingomyelin (6 μg/mouse/injection) or vehicle (0.05% Tween-20 in PBS) were delivered on days 0, 4, and 7 after immunization with PLP139-151. […] Clinical disease was monitored daily using the following scoring system: 0, no disease; 1, limp tail; 2, hind limb weakness; 3, hind limb paralysis; 4, hind limb and forelimb paralysis; 5, death. […]
# [8] = system: NF-κB and ERK pathways, Bcl-2 family proteins; test: Immunoblot of inflammatory, survival and apoptotic signaling in anti-CD3/anti-CD28-stimulated T cells; assay type: cell-based, mouse; conditions: 30 μg/ml lipid, 15 min or 24 h
# Experimental: CD3^+ T cells were isolated from the lymph nodes of naïve C57BL/6 mice by using CD3^+ T-cell enrichment columns (R&D systems). […] Cells were washed with ice-cold PBS and lysed in RIPA lysis buffer containing 1X Halt protease and phosphatase inhibitor cocktail (Pierce) with a Dounce homogenizer. Immunoblotting was performed with antibodies against phospho-Bim ([…]), phospho-Bad ([…]), phospho-Bcl-2 ([…]), phospho-IKKα/β (serines 180/181), phospho-p65 ([…]), phospho-ERK1/2 […]), and IκBα from Cell Signaling Technology.
# [9] = system: EAE in PLP139-151-immunized SJL/J mice; conditions: prophylactic regimen, previously tested by the applicant, cited from earlier work
molecule,measurement,setting,value
CCCC[C@H](CCC(=O)O)NC(=O)CCCCCCc1ccccc1 [CAY10950],Effect on azPC (azPC-mediated inhibition of MBP-specific T cell proliferation),[1],Inhibited
O=C(CCCCc1ccccc1)C(F)(F)C(F)(F)F [FKGK 11],Effect on azPC (azPC-mediated inhibition of MBP-specific T cell proliferation),[1],No effect
CCc1c(CC(N)=O)c2cc(OCCCP(=O)(O)O)ccc2n1Cc1ccccc1 [LY 311727],Effect on azPC (azPC-mediated inhibition of MBP-specific T cell proliferation),[1],Inhibited
COc1ccc2c(c1)CC[C@@H]1[C@@H]2CC[C@]2(C)[C@@H](NCCCCCCN3C(=O)C=CC3=O)CC[C@@H]12 [U 73122],Effect on azPC (azPC-mediated inhibition of MBP-specific T cell proliferation),[1],No effect
CCCCCCCCCCCC(=O)c1c(O)c(C(=O)CCCCCCCCCCC)c(O)c(C2CC(c3ccc(O)cc3)Oc3cc(O)ccc32)c1O (stereo not drawn) [YM 26734],Effect on azPC (azPC-mediated inhibition of MBP-specific T cell proliferation),[1],Inhibited
CCCCCCCC(=O)OC [methyl octanoate],concentration at which T-cell proliferation was suppressed,[2],10 mM
CCCCCCCC(=O)O [octanoic acid],concentration at which T-cell proliferation was suppressed,[2],5 mM
CCCCCCCCCCCCCCCC(=O)O [palmitic acid],T-cell apoptosis,[3],induced T-cell apoptosis
same,EAE course after treatment was halted,"[4]; 100 μg i.v. every other day, then stopped",disease relapsed
same,"EAE severity, established disease","[4]; 100 μg i.v. once paralysis developed, every other day, ten injections",attenuated EAE
same,T-cell proliferation,CD3+ T cells [5],suppressed T-cell proliferation as effectively as the phospholipids
same,T-cell production of IFN-γ,CD3+ T cells [6],suppressed
same,T-cell production of IL-6,CD3+ T cells [6],suppressed
same,T-cell production of IL-17,CD3+ T cells [6],suppressed
same,T-cell production of TNF,CD3+ T cells [6],suppressed
same,concentration at which T-cell proliferation was suppressed,[2],0.1 mM
Sphingomyelin [reference compound],"EAE severity, established disease","[4]; 100 μg i.v. from disease onset (10 days after immunization), five injections",exacerbated EAE
same,EAE severity (clinical score),[7],attenuated EAE
sulfatide [reference compound],CD3/CD28-induced activation of the NF-κB and ERK pathways,[8],neither inhibited
same,EAE severity,[9],exacerbated EAE
same,EAE severity,[9]; listed as sulfatides,worsened EAE
